Experiment [1] has as its target T1, LXRα (Homo sapiens, UniProt Q13133).
T1 sequence (Q13133 1-447): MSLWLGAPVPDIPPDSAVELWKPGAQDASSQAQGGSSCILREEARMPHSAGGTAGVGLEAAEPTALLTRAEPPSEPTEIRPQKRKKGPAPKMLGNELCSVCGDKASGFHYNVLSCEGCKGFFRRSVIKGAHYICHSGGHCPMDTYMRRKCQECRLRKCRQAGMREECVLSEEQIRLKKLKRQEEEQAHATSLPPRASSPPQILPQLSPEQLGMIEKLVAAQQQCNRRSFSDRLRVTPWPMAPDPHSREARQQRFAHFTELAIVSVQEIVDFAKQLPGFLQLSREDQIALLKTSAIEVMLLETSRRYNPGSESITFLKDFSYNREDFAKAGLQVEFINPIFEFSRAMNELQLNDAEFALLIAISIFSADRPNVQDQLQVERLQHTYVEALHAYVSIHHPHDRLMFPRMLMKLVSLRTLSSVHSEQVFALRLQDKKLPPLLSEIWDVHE
T1 sequence (P19793 1-462 partner): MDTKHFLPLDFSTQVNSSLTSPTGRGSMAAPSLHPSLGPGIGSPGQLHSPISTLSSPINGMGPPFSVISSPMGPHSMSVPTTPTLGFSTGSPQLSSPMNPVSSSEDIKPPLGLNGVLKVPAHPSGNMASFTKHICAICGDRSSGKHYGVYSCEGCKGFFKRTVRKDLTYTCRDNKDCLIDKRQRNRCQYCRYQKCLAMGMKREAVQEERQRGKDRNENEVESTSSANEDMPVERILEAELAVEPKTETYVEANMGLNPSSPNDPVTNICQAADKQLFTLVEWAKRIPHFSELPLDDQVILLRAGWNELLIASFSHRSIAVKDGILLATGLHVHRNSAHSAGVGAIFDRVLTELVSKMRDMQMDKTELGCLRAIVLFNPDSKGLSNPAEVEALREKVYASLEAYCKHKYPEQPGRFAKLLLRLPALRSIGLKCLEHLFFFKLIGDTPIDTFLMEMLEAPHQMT
Put plainly: LXR/LXRE co-transfection assay (luciferase reporter, CV-1 cells). The experiment is classed as cell-based. On the set-up: expressed in transfected cells; host or cells: CV-1 African Green Monkey Kidney Cells. To be noted: for EC50: CV-1 cells, agonism; for LXRα/LXRE Eff: efficacy relative to control N-(3-((4-fluorophenyl)-(naphthalene-2-sulfonyl)-amino)propyl)-2,2-dimethylpropionamide. From the text:
(§1) To measure the ability of compounds to activate or inhibit the transcriptional activity of LXR, in a cell based assay, the cotransfection assay may be used. It has been shown that LXR functions as a heterodimer with RXR. For the co-transfection assay, expression plasmids for LXR and RXR are introduced via transient transfection into mammalian cells along with a luciferase reporter plasmid that contains one copy of a DNA sequence that is bound by LXR-RXR heterodimers (LXRE; Willy, P. et al. 1995). Treatment of transfected cells with an LXR agonist increases the transcriptional activity of LXR, which is measured by an increase in luciferase activity.
(§2) A. Required Materials • 1. CV-1 African Green Monkey Kidney Cells • 2. Co-transfection Expression plasmids, CMX-hLXR, or CMX-hLXR, CMX-RXR, reporter (LXREx1-Tk-Luciferase), and control (CMX-Galactosidase expression vector). • 3. Transfection reagent such as FuGENE6 (Roche). • 4. 1× Cell lysis buffer (1% Triton X 100 (JT Baker X200-07), 10% Glycerol (JT Baker M778-07), 5 mM Ditriotreitol (Quantum Bioprobe DTT03; add fresh before lysing), 1 mM EGTA (Ethylene Glycol-bis (B-Amino ethyl ether)-N,N,N′,N′-Tetracetic Acid) (Sigma E-4378), 25 mM Tricine (ICN 807420) pH 7.8 • 5. 1× Luciferase assay buffer (pH at 7.8) (0.73 mM ATP, 22.3 mM Tricine, 0.11 mM EDTA 33.3 mM DTT) • 6. 1× Luciferrin/CoA (11 mM Luciferin, 3.05 mM Coenzyme A, 10 mM HEPES
(§3) B. Preparation of Screening Reagents • 1. CV-1 cells are prepared 24 hours prior to the experiment by plating them into T-175 flasks or 500 cm^2 dishes in order to achieve 70-80% confluency on the day of the transfection. The number of cells to be transfected is determined by the number of plates to be screened. Each 384 well plate requires 1.92×10^6 cells or 5000 cells per well. • 2. DNA Transfection Reagent is prepared by mixing the required plasmid DNAs with a cationic lipid transfection reagent such as DOTAP or FuGENE6 by following the instructions provided with the reagents. Optimal DNA amounts need to be determined empirically per cell line and size of vessel to be transfected. • 3. Add 10-12 mls media to the DNA Transfection Reagent and add this mixture to the cells after aspirating media from a T175 cm^2 flask. • 4. Incubate at least 5 hours at 37 degrees to prepare screening cells. • 5. Luciferase assay reagent is prepared by combining before use (per • 10 ml): • 10 ml 1× Luciferase assay buffer • 0.54 mls of 1× Luciferrin/CoA • 0.54 mls of 0.2 M Magnesium sulfate
(§4) 1. C. Procedure • 1. Prepare assay plates by dispensing 0.5 ul of 1 mM compound per well of a 384 well plate to achieve final compound concentration of 10 uM and 1% DMSO. • 2. Remove media from the screening cells, trypsinize, harvest cells by centrifugation, count the cells, and plate at 5000 cells per well in the 384 well assay plate prepared above in a volume of about 45 ul. • 3. Incubate assay plates containing both compounds and screening cells for 20 hours at 37 C. degrees. • 4. Carefully aspirate media from cells and ensure that cells are not lifted off. • 5. Add lysis buffer (30 ul/well) and incubate at least 30 minutes room temp. • 6. Add luciferase assay buffer (30 ul/well) and read assay plates on luminometer (PE Biosystems Northstar reader with on-board injectors, or equivalent). • 7. Read plates immediately after addition of luciferase assay reagent.
(§5) The LXR/LXRE co-transfection assay can be used to establish the EC50/IC50 values for potency and percent activity or inhibition for efficacy. Efficacy defines the activity of a compound relative to a high control ((N-(3-((4-fluorophenyl)-(naphthalene-2-sulfonyl)-amino)propyl)-2,2-dimethylpropionamide)) or a low control (DMSO/vehicle). The dose response curves are generated from an 8 point curve with concentrations differing by ½ LOG units. Each point represents the average of 4 wells of data from a 384 well plate. The curve for the data is generated by using the equation: Y=Bottom+(Top-Bottom)/(1+10^((LogEC50-X)*HillSlope)) […]

The target of experiment [2] is T2, LXRβ (Homo sapiens, UniProt P55055).
T2 sequence (P55055 1-460): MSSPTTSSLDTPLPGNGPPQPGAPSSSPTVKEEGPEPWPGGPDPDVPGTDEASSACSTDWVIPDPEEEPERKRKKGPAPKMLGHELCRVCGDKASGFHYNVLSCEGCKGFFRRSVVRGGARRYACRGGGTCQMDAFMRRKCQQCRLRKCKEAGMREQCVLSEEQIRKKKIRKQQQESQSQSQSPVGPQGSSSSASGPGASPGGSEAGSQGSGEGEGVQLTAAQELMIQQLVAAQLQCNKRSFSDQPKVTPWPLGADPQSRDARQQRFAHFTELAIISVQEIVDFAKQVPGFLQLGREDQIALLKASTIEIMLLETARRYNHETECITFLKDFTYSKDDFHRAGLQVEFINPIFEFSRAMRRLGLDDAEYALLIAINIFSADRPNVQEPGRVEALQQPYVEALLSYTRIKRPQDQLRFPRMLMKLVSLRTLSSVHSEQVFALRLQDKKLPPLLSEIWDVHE
T2 sequence (P19793 1-462 partner): T1 sequence (P19793 1-462 partner)
The experiment is described as above. The experiment is classed as cell-based. Details: expressed in transfected cells; host or cells: CV-1 African Green Monkey Kidney Cells. To be noted: for EC50: CV-1 cells, agonism; for LXRβ/LXRE Eff: efficacy relative to control N-(3-((4-fluorophenyl)-(naphthalene-2-sulfonyl)-amino)propyl)-2,2-dimethylpropionamide.
Description: as §1, §2, §3, §4, §5

For experiment [3], the target named is T1, LXRα. Put plainly: Scintillation proximity assay (SPA), displacement of 3H-24,25-epoxycholesterol. On the set-up: made in house. As to conditions: scintillation proximity binding assay; average of at least two dose response experiments; read-out: Ki(α). The protocol:
(§6) The SPA assay measures the radioactive signal generated by the binding of ^3H-24, 25-epoxycholesterol to LXRα or LXRβ. The basis of the assay is the use of SPA beads containing a scintillant, such that when binding to the receptor brings the labeled ligand into proximity with the bead, the energy from the label stimulates the scintillant to emit light. The light is measured using a standard microplate scintillation reader. The ability of a ligand to bind to a receptor can be measured by assessing the degree to which the compound can compete off a radiolabelled ligand with known affinity for the receptor.
(§7) A. Required Materials • 1. Label: ^3H-24, 25-epoxy-cholesterol (Amersham) • 2. LXRα lysate: Baculovirus expressed LXRα/RXR heterodimer with RXR having a 6-HIS tag produced as a crude lysate • 3. LXRβ lysate: Baculovirus expressed LXRβ/RXR heterodimer with RXR having a 6-HIS tag produced as a crude lysate • 4. SPA beads: Ysi copper His-tag SPA beads (Amersham) • 5. Plates: Non-binding surface 96-well plate (Corning) • 6. Protein lysate dilution buffer: (20 mM Tris-HCl pH 7.9, 500 mM NaCl, 5 mM Imidazole). • 7. 2×SPA Buffer: (40 mM K2HPO4/KH2PO4 pH7.3, 100 mM NaCl, 0.05% Tween 20, 20% Glycerol, 4mM EDTA) • 8. 2×SPA Buffer w/o EDTA: (40 mM K2HPO4/KH2PO4 pH7.3, 100 mM NaCl, 0.05% Tween 20, 20% Glycerol)
(§8) B. Preparation of Screening Reagents • 1. [^3H]24,25 Epoxycholesterol (EC) solution. For a single 384-well plate (or 400 wells), add 21 μl [^3H] EC (specific activity 76.5Ci/mmol, concentration 3.2mCi/ml) in 4.4 ml of 2×SPA buffer to a final concentration of 200nM. For each additional 384-well plate, add 19.1 μl additional [^3H] EC and 4.0 ml additional 2×SPA buffer. The final concentration of [^3H] EC in the well will be 50 nM. • 2. Dilute LXRα lysate with protein lysate dilution buffer. Make 1400 μl of diluted LXRα lysate for a 384-well plate, (or 200 wells) and 1120 μl of diluted LXRα lysate for each additional 384-well plate. • 3. Diluted LXRβ lysate with protein lysate dilution buffer. Make 1400 μl of diluted LXRβ lysate for 1 a 384-well plate, (or 200 wells) and 1120 μl of diluted LXRβ lysate for each additional 384-well plate. • 4. SPA bead solution. For 1 a 384-well plate (or 400 wells), mix 3.75 ml of 2× SPA buffer w/o EDTA, 2.25 ml of H2O, and 1.5 ml of Ysi His-tag SPA beads (Vortex well before taking). For each addition 384-well plate, mix additional 3.5 ml of 2×SPA buffer w/o EDTA, 2.1 ml of H2O, and 1.4 ml of Ysi His-tag SPA beads to the SPA bead solution.
(§9) C. Procedure: • 1. Prepare appropriate dilutions of each compound and pipette into the appropriate wells of a multiwell plate. • 2. Add 9.1 μl of [^3H] EC to each well of column 2-23 of the multiwell plate. • 3. Add 5 μl of diluted LXRα lysate to each well of column 2-23 on odd rows of the multiwell plate. • Add 5 μl of diluted LXRβ lysate to each well of column 2-23 on even rows of the multiwell plate. • 4. Add 17.5 μl of SPA bead solution to each well of column 2-23 of the multiwell plate. • 5. Cover the plates with clear sealer. Place the plates in the MicroBeta. Incubate at room temperature for 1 hr. • 6. Count using program n ABASE 3H—384DPM. The setting for n ABASE 3H—384DPM is:
(§10) Assays for LXRα and LXRβ were performed in the identical manner. The determined Ki represents the average of at least two independent dose response experiments. The binding affinity for each compound may be determined by non-linear regression analysis using the one site competition formula to determine the IC50 where:
(§11) [formula] The Ki is than calculated using the Cheng and Prusoff equation where:
(§12) [formula] Ligand=50 nM EC and Kd=200 nM as determined by saturation binding

Experiment [4] deals with T2, LXRβ. The description is as above. Details: made in house. To be noted: scintillation proximity binding assay; average of at least two dose response experiments; read-out: Ki(β). The protocol:
as §6, §7, §8, §9, §10, §11, §12

In the case of `Cc1ccc(Cn2c(-c3ccccc3)cc(C(F)(F)F)c(C#N)c2=O)o1` [1-(5-Methyl-furan-2-ylmethyl)-2-oxo-6-phenyl-4-trifluoromethyl-1,2-dihydro-pyridine-3-carbonitrile], at LXRα [1], a half-maximal response (EC50) required 0.58 µM and the “LXRα/LXRE Eff” value worked out at 91%. Further, at LXRβ [2], the concentration for a half-maximal effect (EC50) was 0.81 µM and the “LXRβ/LXRE Eff” value was determined as 93%. The inhibitory constant (Ki) on LXRα [3] came to 0.36 µM. Further, on LXRβ [4], the Ki stood at 0.23 µM.

In the case of `N#Cc1c(C(F)(F)F)cc(-c2cccs2)n(Cc2ccccc2)c1=O` [1-Benzyl-2-oxo-6-thiophen-2-yl-4-trifluoromethyl-1,2-dihydro-pyridine-3-carbonitrile], on LXRα [1], the EC50 was found to be 1.6 µM and the “LXRα/LXRE Eff” value is 56%. Also, at LXRβ [2], the response was half-maximal at 1.8 µM (EC50) and the “LXRβ/LXRE Eff” value stood at 82%. Further, the inhibition constant Ki on LXRα [3] is 1.4 µM. For the same molecule, the Ki at LXRβ [4] is 0.58 µM.

In the case of `COc1cccc(-c2cc(C(F)(F)F)c(C#N)c(=O)n2Cc2ccccc2)c1` [1-Benzyl-6-(3-methoxy-phenyl)-2-oxo-4-trifluoromethyl-1,2-dihydro-pyridine-3-carbonitrile], on LXRα [1], the 50% effective concentration (EC50) came to 1.2 µM and the “LXRα/LXRE Eff” value stood at 78%. On LXRβ [2], the concentration giving a half-maximal response (EC50) came out at 0.84 µM and the “LXRβ/LXRE Eff” value turned out to be 79%. Moreover, the Ki on LXRα [3] was 0.51 µM. For the same molecule, the Ki on LXRβ [4] was 0.12 µM.

Regarding `N#Cc1c(C(F)(F)F)cc(-c2ccccc2)n(N=C2CCCCC2)c1=O` [1-Cyclohexylideneamino-2-oxo-6-phenyl-4-trifluoromethyl-1,2-dihydropyridine-3-carbonitrile], on LXRα [1], the response was half-maximal at 3.4 µM (EC50) and the “LXRα/LXRE Eff” value came out at 90%. Also, on LXRβ [2], the 50% effective concentration (EC50) was determined as 4.3 µM and the “LXRβ/LXRE Eff” value is given as 72%. In addition, the Ki at LXRα [3] came to 0.69 µM. The inhibitory constant (Ki) at LXRβ [4] was 0.45 µM.

These data come from patent publication US7998986B2, “Modulators of LXR” (Exelixis Patent Company LLC, priority 2001, dated 2011).
